Results on one compound are retold here after US8697385B1, “Protein controlling synthesis of collagen and associated methods” (Florida State University Research Foundation, Inc., priority 2009, dated 2014).

One data set has as its system Δ5′SL MEFs. Kind of data set: Western blot analysis of collagen α1(I) polypeptide, Δ5′SL MEFs. Type of data set: cell-based, mouse. To be noted: ML-7 treatment. The procedure:
ML-7, blebbistatin, cytochalasin B, puromycin, and cycloheximide were purchased from Sigma. ML-7 was used at 40 μM, blebbistatin was used at 100 μM, and cytochalasin B was used at 20 μM. Cells were incubated with the drugs for 16 h before analysis. Puromycin (200 μg/ml) and cycloheximide (100 μg/ml) were added to the cells for 2 h. Human lung fibroblasts have been described previously.16 Scleroderma fibroblasts were purchased from the European Collection of Cell Cultures (cell line BM0070) and derived from the skin of a scleroderma patient. MEFs were derived from knock-in mice in which the 5′SL of the collagen α1(I) gene has been mutated (Parsons et al., submitted). Several independent cell isolates were used throughout the study. All cells were cultured in Dulbecco's modified Eagle's medium supplemented with 10% fetal bovine serum for up to 10 passages. […] [^32P]dCTP was included in the PCR step to label the products, which were resolved on sequencing gels, as described previously.^8,31,49,50 When RNA from polysomal fractions was analyzed, an equal aliquot of each fraction was used. […]
Protein concentration was estimated by the Bradford assay, with bovine serum albumin as standard.^51 Western blot analyses of cellular proteins were performed using 50 μg of protein. […] The medium was collected, and an aliquot was analyzed directly by Western blot analysis. […]
A general note: Immunoblotting shows a protein as a band on a membrane.

In a further data set the test system is lung fibroblasts. Description: Apoptosis of primary lung fibroblasts. It is filed as cell-based. To be noted: lung fibroblasts after ML-7 treatment; without treatment 2.2%. An excerpt:
To assess the role of nonmuscle myosin in collagen synthesis, we disrupted nonmuscle myosin filaments in two different cell types: primary human lung fibroblasts and primary scleroderma skin fibroblasts. These cells are responsible for lung and skin fibrosis. […] To assess the effect of ML-7 on collagen protein synthesis and secretion, we analyzed the levels of collagen α1(I) and α2(I) polypeptides in the intracellularly space and in the medium using Western blot analysis and chain-specific antibodies.^12,15,31-33 ML-7 treatment profoundly affected the secretion of type I collagen, but the effect differed in the two types of primary fibroblasts. […] To assess if the secreted α1(I) polypeptides had been secreted as disulfide-bonded homotrimers, we performed Western blot analysis under nonreducing conditions (FIG. 3d). […] However, since α2(I) polypeptide was absent in the cell medium of ML-7-treated cells, the bands must represent disulfide-bonded collagen α1(I) chains. The α2(I) antibody could not recognize the polypeptide under nonreducing conditions, so we could not directly test its presence in S—S bonded collagen. Since there are reports that ML-7 can cause apoptosis of epithelial cells, we tested if ML-7 caused apoptosis of the primary fibroblasts. […] Therefore, we concluded that increased apoptosis is not responsible for the observed effects of ML-7. […]

For the compound `O=S(=O)(c1cccc2c(I)cccc12)N1CCCNCC1` [ML-7], in the data set on Δ5′SL MEFs, the “secretion of α1(I) polypeptide into the medium” value is “did not affect”. Moreover, in the data set on lung fibroblasts, the “percentage of apoptotic cells” value was determined as 4.2%.
